In patent publication US9682960B2 (priority 2013, dated 2017):
Where two headings read alike, the source gives them in different places.

Assays:
[1] = molecular target: Human Androgen Receptor (Homo sapiens (Human), UniProt P10275); assay: Androgen receptor assay: [3H]R1881 displacement, cytosol of HEK-293 cells transfected with hAR (hydroxylapatite assay); format: binding; settings: relative binding affinity, R1881 = 100
[2] = test system: Shionogi mouse mammary carcinoma cells; assay: In vitro androgenic/antiandrogenic activity: proliferation of Shionogi cells with or without DHT; format: cell-based; settings: Mus musculus
[3] = test system: castrated (CX) immature male rats; assay: Systemic androgenic (agonistic) activity in orchidectomized (CX) immature male rats; format: in vivo, rat; settings: 0.1 mg/rat/po, 7 days; for CX Agonistic activity % Stimulation Bulbo: bulbocavernosus muscles weight; for CX Agonistic activity % Stimulation SV: seminal vesicles weight; for CX Agonistic activity % Stimulation Prostate: ventral prostate weight
Method: Immature male rats (Crl:CD(SD)Br) 22 to 24-day old weighting 60-80 g at start of treatment were obtained from Charles-River, Inc. (St-Constant, Quebec, Canada) and housed up to 5 per cage in plastic bins in a temperature (23±1° C.)- and light (12 h light/day, lights on at 7 h15)-controlled environment. The rats were fed rodent chow and tap water ad libitum. […] The day following their arrival, the designed animals were orchidectomized (CX) under Isoflurane anesthesia (Study Day 1) via the scrotal route and were then randomly assigned to groups of 3 to 5 animals. At the time of orchidectomy, one silastic implant of dihydrotestosterone (DHT; 1 cm length of pure DHT in silastic tubing having inner and outer diameter of 0.078 and 0.125 inches, respectively), was inserted subcutaneously in the dorsal area of animals assigned to the evaluation of antiandrogenic activity. In the case of intact animal experiments, the orchidectomy and the silastic implant installation are omitted.
Tested compounds were administered orally once daily for 7 days from Study Day 2 to Study Day 8 at doses generally ranging from 0.1 and 0.5 mg/animal. Compounds were either solubilized in dimethylsulfoxide (DMSO, 10% final concentration) and were administered as a solution/suspension in 0.9% NaCl-1% gelatin or were administered as suspensions in 0.4% aqueous methylcellulose. Animals of the control groups received the corresponding vehicle alone during the 7-day period. Some animals were treated with the antiandrogen Flutamide or Casodex as reference. The animals under isoflurane anesthesia were killed by cervical dislocation on day 9 of the study, approximately 24 h after the last dosing. The ventral prostate, seminal vesicles and bulbocavernosus muscles were rapidly dissected and weighed.
For calculations with intact animals, control DHT is replaced by control intact and the % stimulation is subtracted by 100%. W is the weight of the prostate, seminal vesicles or bulbocavernosus muscles. Discussion

[4] = read-out: Shionogi Antiandrogenic Activity IC50, DHT (0.3 nM)-stimulated cell number
[5] = DHT (0.3 nM)-stimulated cell number, read-out: Shionogi Antiandrogenic Activity IC50

Chain of Human Androgen Receptor (P10275 whole entry): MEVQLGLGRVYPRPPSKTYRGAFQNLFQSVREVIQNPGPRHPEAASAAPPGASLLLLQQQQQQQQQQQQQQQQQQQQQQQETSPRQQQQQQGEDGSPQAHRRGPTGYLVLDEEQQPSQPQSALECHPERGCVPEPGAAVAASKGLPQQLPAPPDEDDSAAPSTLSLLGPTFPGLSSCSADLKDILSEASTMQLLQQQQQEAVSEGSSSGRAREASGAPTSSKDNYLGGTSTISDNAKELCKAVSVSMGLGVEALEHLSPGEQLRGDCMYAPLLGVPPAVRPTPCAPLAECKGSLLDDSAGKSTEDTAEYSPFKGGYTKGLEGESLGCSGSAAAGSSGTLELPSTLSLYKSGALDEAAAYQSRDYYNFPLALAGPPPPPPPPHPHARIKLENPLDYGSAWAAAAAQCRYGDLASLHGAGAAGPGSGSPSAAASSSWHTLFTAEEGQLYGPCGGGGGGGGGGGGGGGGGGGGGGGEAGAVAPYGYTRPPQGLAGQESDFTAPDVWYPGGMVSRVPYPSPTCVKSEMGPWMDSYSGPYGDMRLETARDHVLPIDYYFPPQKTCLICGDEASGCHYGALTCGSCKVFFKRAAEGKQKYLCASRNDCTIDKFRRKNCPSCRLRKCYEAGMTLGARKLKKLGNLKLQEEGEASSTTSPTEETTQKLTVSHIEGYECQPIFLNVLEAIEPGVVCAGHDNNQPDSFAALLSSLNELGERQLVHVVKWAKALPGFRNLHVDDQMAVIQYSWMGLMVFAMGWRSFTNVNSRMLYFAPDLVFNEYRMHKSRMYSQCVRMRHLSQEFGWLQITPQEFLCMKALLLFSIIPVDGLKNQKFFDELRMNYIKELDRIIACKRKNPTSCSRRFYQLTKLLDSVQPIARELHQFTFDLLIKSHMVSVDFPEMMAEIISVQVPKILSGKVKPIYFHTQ

Cc1c(N2C(=O)C(C)(C)N(CCCOc3ccc(-c4ccncc4)cc3C(F)(F)F)C2=S)ccc(C#N)c1Cl [EM-8773]
Human Androgen Receptor Binding RBA (%) R1881 = 100 ([1]; […]): 28.1% | IC50 [2, 4]: 125 nM | CX Agonistic activity % Stimulation Bulbo [3]: 123% | CX Agonistic activity % Stimulation SV [3]: 30% | CX Agonistic activity % Stimulation Prostate [3]: 30%

Cc1c(N2C(=O)N(CCCOc3ccc4cccnc4c3)C(C)(C)C2=O)ccc(C#N)c1Cl [EM-8786]
Human Androgen Receptor Binding RBA (%) R1881 = 100 ([1]; transfected cells): 8.9 ± 0.2 (n = 2) % | IC50 [2, 4]: 191 ± 87 nM | CX Agonistic activity % Stimulation Bulbo [3]: 124 ± 32 (n = 2) % | CX Agonistic activity % Stimulation SV [3]: 10 ± 10 (n = 2) % | CX Agonistic activity % Stimulation Prostate [3]: 35 ± 10 (n = 2) %

Cc1c(N2C(=O)C(C)(C)N(CCCOc3ccc(-c4ccncc4)cc3F)C2=S)ccc(C#N)c1C(F)(F)F [EM-8793]
Human Androgen Receptor Binding RBA (%) R1881 = 100 ([1]; transfected cells): 412% | IC50 [2, 4]: 48.2 nM | CX Agonistic activity % Stimulation Bulbo [3]: 139% | CX Agonistic activity % Stimulation SV [3]: 42% | CX Agonistic activity % Stimulation Prostate [3]: 29%

Cc1c(N2C(=O)C(C)(C)N(CCCOc3ccc(-c4ccncc4)c(F)c3)C2=S)ccc(C#N)c1Cl [EM-8796]
Human Androgen Receptor Binding RBA (%) R1881 = 100 ([1]; […]): 698% | IC50 [2, 4]: 188 nM | CX Agonistic activity % Stimulation Bulbo [3]: 168% | CX Agonistic activity % Stimulation SV [3]: 127% | CX Agonistic activity % Stimulation Prostate [3]: 58%

Cc1c(N2C(=O)C(C)(C)N(CCCOc3ccc(-c4ccncc4)c(F)c3)C2=S)ccc(C#N)c1C(F)(F)F [EM-8797]
Human Androgen Receptor Binding RBA (%) R1881 = 100 ([1]; transfected cells): 400% | IC50 [2, 5]: 108 nM | CX Agonistic activity % Stimulation Bulbo [3]: 143% | CX Agonistic activity % Stimulation SV [3]: 58% | CX Agonistic activity % Stimulation Prostate [3]: 50%

Cc1c(N2C(=O)C(C)(C)N(CCCOc3ccc(-c4ccncc4)cc3Cl)C2=S)ccc(C#N)c1C(F)(F)F [EM-8798]
Human Androgen Receptor Binding RBA (%) R1881 = 100 ([1]; transfected cells): 219% | IC50 [2, 4]: 130 nM | CX Agonistic activity % Stimulation Bulbo [3]: 114% | CX Agonistic activity % Stimulation SV [3]: 25% | CX Agonistic activity % Stimulation Prostate [3]: 49%

Cc1c(N2C(=O)C(C)(C)N(CCCOc3ccc(-c4ccncc4)cc3Cl)C2=S)ccc(C#N)c1Cl [EM-8799]
Human Androgen Receptor Binding RBA (%) R1881 = 100 ([1]; […]): 877% | IC50 [2, 4]: 116 nM | CX Agonistic activity % Stimulation Bulbo [3]: 126% | CX Agonistic activity % Stimulation SV [3]: 55% | CX Agonistic activity % Stimulation Prostate [3]: 58%

Cc1c(N2C(=O)C(C)(C)N(CCCOc3ccc(-c4ccncc4)cn3)C2=S)ccc(C#N)c1Cl [EM-8815]
Human Androgen Receptor Binding RBA (%) R1881 = 100 ([1]; transfected cells): 159% | IC50 [2, 4]: 80 nM | CX Agonistic activity % Stimulation Bulbo [3]: 163% | CX Agonistic activity % Stimulation SV [3]: 75% | CX Agonistic activity % Stimulation Prostate [3]: 59%

Cc1c(N2C(=O)C(C)(C)N(CCCOc3ccc(-c4ccncc4)c(C(F)(F)F)c3)C2=S)ccc(C#N)c1Cl [EM-8820]
Human Androgen Receptor Binding RBA (%) R1881 = 100 ([1]; transfected cells): 263% | IC50 [2, 4]: 21.8 nM | CX Agonistic activity % Stimulation Bulbo [3]: 154% | CX Agonistic activity % Stimulation SV [3]: 58% | CX Agonistic activity % Stimulation Prostate [3]: 33%

Cc1c(N2C(=O)C(C)(C)N(CCCOc3ccc(-c4ccncc4)nc3)C2=S)ccc(C#N)c1Cl [EM-8827]
Human Androgen Receptor Binding RBA (%) R1881 = 100 ([1]; […]): 113% | IC50 [2, 4]: 118 ± 14 nM | CX Agonistic activity % Stimulation Bulbo [3]: 133% | CX Agonistic activity % Stimulation SV [3]: 38% | CX Agonistic activity % Stimulation Prostate [3]: 41%

Cc1c(N2C(=O)C(C)(C)N(CCCOc3ccc(Oc4ccc(Cl)nc4)nc3)C2=S)ccc(C#N)c1Cl [EM-8828]
Human Androgen Receptor Binding RBA (%) R1881 = 100 ([1]; […]): 112% | IC50 [2, 4]: 96.5 nM | CX Agonistic activity % Stimulation Bulbo [3]: 161% | CX Agonistic activity % Stimulation SV [3]: 31% | CX Agonistic activity % Stimulation Prostate [3]: 40%

Cc1c(N2C(=O)C(C)(C)N(CCCOc3ccc4cnccc4c3)C2=S)ccc(C#N)c1Cl [EM-8869]
Human Androgen Receptor Binding RBA (%) R1881 = 100 ([1]; transfected cells): 56% | IC50 [2, 5]: ~1000 nM | CX Agonistic activity % Stimulation Bulbo [3]: 101% | CX Agonistic activity % Stimulation SV [3]: 18% | CX Agonistic activity % Stimulation Prostate [3]: 31%

Cc1c(N2C(=O)C(C)(C)N(CCCOc3ccc(-c4ccncc4)c(Cl)c3)C2=S)ccc(C#N)c1Cl [EM-8887]
Human Androgen Receptor Binding RBA (%) R1881 = 100 ([1]; […]): 1890 ± 1040 (n = 2) % | IC50 [2, 4]: 133 nM | CX Agonistic activity % Stimulation Bulbo [3]: 214% | CX Agonistic activity % Stimulation SV [3]: 107% | CX Agonistic activity % Stimulation Prostate [3]: 55%

Cc1c(N2C(=O)C(C)(C)N(CCCOc3ccc(-c4cc[n+]([O-])cc4)cc3)C2=S)ccc(C#N)c1Cl [EM-8913]
Human Androgen Receptor Binding RBA (%) R1881 = 100 ([1]; […]): 114% | IC50 [2, 4]: > 100 nM | CX Agonistic activity % Stimulation Bulbo [3]: 160% | CX Agonistic activity % Stimulation SV [3]: 65% | CX Agonistic activity % Stimulation Prostate [3]: 54%

Cc1c(N2C(=O)C(C)(C)N(CCCOc3ccc(-c4ccnc(F)c4)cc3)C2=S)ccc(C#N)c1Cl [EM-8922]
Human Androgen Receptor Binding RBA (%) R1881 = 100 ([1]; […]): 414% | IC50 [2, 4]: 79 nM | CX Agonistic activity % Stimulation Bulbo [3]: 134% | CX Agonistic activity % Stimulation SV [3]: 54% | CX Agonistic activity % Stimulation Prostate [3]: 52%

Cc1c(N2C(=O)C(C)(C)N(CCCOc3ccc(-c4ccncc4)c(C#N)c3)C2=S)ccc(C#N)c1Cl [EM-8933]
Human Androgen Receptor Binding RBA (%) R1881 = 100 ([1]; […]): 134% | IC50 [2, 4]: 110 nM | CX Agonistic activity % Stimulation Bulbo [3]: 136% | CX Agonistic activity % Stimulation SV [3]: 43% | CX Agonistic activity % Stimulation Prostate [3]: 46%

Cc1c(N2C(=O)C(C)(C)N(CCCOc3ccc(-c4ccncc4F)cc3)C2=S)ccc(C#N)c1C(F)(F)F [EM-8974]
Human Androgen Receptor Binding RBA (%) R1881 = 100 ([1]; […]): 41.9% | IC50 [2, 4]: 112 nM | CX Agonistic activity % Stimulation Bulbo [3]: 139% | CX Agonistic activity % Stimulation SV [3]: 24% | CX Agonistic activity % Stimulation Prostate [3]: 61%

Cc1c(N2C(=O)C(C)(C)N(CCCOc3ccc(-c4ccncc4Cl)cc3)C2=S)ccc(C#N)c1Cl [EM-8977]
Human Androgen Receptor Binding RBA (%) R1881 = 100 ([1]; […]): 89.8% | IC50 [2, 4]: 100 nM | CX Agonistic activity % Stimulation Bulbo [3]: 194% | CX Agonistic activity % Stimulation SV [3]: 65% | CX Agonistic activity % Stimulation Prostate [3]: 72%

CC1(C)C(=O)N(c2ccc(C#N)c(C(F)(F)F)c2)C(=S)N1CCCOc1ccc2ncccc2c1 [EM-8990]
Human Androgen Receptor Binding RBA (%) R1881 = 100 ([1]; […]): 53.6% | IC50 [2, 4]: 9.7 nM | CX Agonistic activity % Stimulation Bulbo [3]: 3% | CX Agonistic activity % Stimulation SV [3]: 1% | CX Agonistic activity % Stimulation Prostate [3]: 0%

CC1(C)C(=O)N(c2ccc(C#N)c(C(F)(F)F)c2)C(=S)N1CCCOc1ccc2cccnc2c1 [EM-8991]
Human Androgen Receptor Binding RBA (%) R1881 = 100 ([1]; […]): 28.5% | IC50 [2, 4]: 38.5 nM | CX Agonistic activity % Stimulation Bulbo [3]: 1% | CX Agonistic activity % Stimulation SV [3]: 2% | CX Agonistic activity % Stimulation Prostate [3]: 2%

Cc1c(N2C(=O)C(C)(C)N(CCCOc3ccc(-c4ccc(N(C)C)nc4)cc3)C2=S)ccc(C#N)c1Cl [EM-8993]
Human Androgen Receptor Binding RBA (%) R1881 = 100 ([1]; transfected cells): 4.8% | IC50 [2, 4]: 59.5 nM | CX Agonistic activity % Stimulation Bulbo [3]: 123% | CX Agonistic activity % Stimulation SV [3]: 61% | CX Agonistic activity % Stimulation Prostate [3]: 50%

Cc1c(N2C(=O)C(C)(C)N(CCCOc3ccc(-c4ccc(N(C)C)nc4)c(F)c3)C2=S)ccc(C#N)c1Cl [EM-8996]
Human Androgen Receptor Binding RBA (%) R1881 = 100 ([1]; transfected cells): 48.9% | IC50 [2, 4]: 100 nM | CX Agonistic activity % Stimulation Bulbo [3]: 131% | CX Agonistic activity % Stimulation SV [3]: 53% | CX Agonistic activity % Stimulation Prostate [3]: 49%

CC1(C)C(=O)N(c2ccc(C#N)c(C(F)(F)F)c2)C(=S)N1CCCOc1ccc2ncncc2c1 [EM-9010]
Human Androgen Receptor Binding RBA (%) R1881 = 100 ([1]; […]): 29.5% | IC50 [2, 4]: 10 nM | CX Agonistic activity % Stimulation Bulbo [3]: 5% | CX Agonistic activity % Stimulation SV [3]: 0% | CX Agonistic activity % Stimulation Prostate [3]: 0%
